Like-named read-outs stand apart in the source and are kept apart here. Where a SMILES comes first, the peptide text is derived from it. Bridges are numbered along the chain shown (N, C = ends). [ ]: non-standard residue; d: D form. The star is where a group is joined. hPhe(3-Cl-4-CF3) = N[C@@H](CCc1ccc(C(F)(F)F)c(Cl)c1)C(=O)O; NPrPhe(4-CF3) = CCCN[C@@H](Cc1ccc(C(F)(F)F)cc1)C(=O)O; NEtPhe(4-Me) = CCN[C@@H](Cc1ccc(C)cc1)C(=O)O; NMeGly(cPent) = CN[C@H](C(=O)O)C1CCCC1; Pro(4,4-F2) = O=C(O)[C@@H]1CC(F)(F)CN1; Pro(4S-Me) = C[C@@H]1CN[C@H](C(=O)O)C1; NMeD = CN[C@@H](CC(=O)O)C(=O)O; NMeL = CN[C@@H](CC(C)C)C(=O)O; Morpholide = C1CN(*)CCO1; Ac5c = NC1(C(=O)O)CCCC1; Ac4c = NC1(C(=O)O)CCC1; NEtG = CCNCC(=O)O; Sar = CNCC(=O)O
Key:
[1] = biological target: GDP-bound KRAS wild-type protein (Homo sapiens, UniProt P01116); assay: Binding to KRAS by surface plasmon resonance (SPR), Single Cycle Kinetics; details: GDP-bound KRAS wild-type protein, read-out: KRAS KD
[2] = biological target: GDP-bound NRAS wild-type protein (Homo sapiens, UniProt P01111); assay: Binding to NRAS by surface plasmon resonance (SPR), Single Cycle Kinetics; details: for NRAS/KRAS (ratio of KD value with respect to NRAS to KD value with respect to KRAS) / NRAS/KRAS (ratio of KD value for NRAS to KD value for KRAS): SPR, GDP-bound NRAS wild-type protein vs GDP-bound KRAS wild-type protein; for NRAS/KRAS (ratio of KD value with respect to GDP-bound NRAS wild-type protein to KD value with respect to KRAS): SPR KD ratio NRAS/KRAS, class symbols
[3] = biological target: GDP-bound HRAS wild-type protein (Homo sapiens, UniProt P01112); assay: Binding to HRAS by surface plasmon resonance (SPR), Single Cycle Kinetics; details: for HRAS/KRAS (ratio of KD value with respect to HRAS to KD value with respect to KRAS) / HRAS/KRAS (ratio of KD value for HRAS to KD value for KRAS): SPR, GDP-bound HRAS wild-type protein vs GDP-bound KRAS wild-type protein; for HRAS/KRAS (ratio of KD value with respect to GDP-bound HRAS wild-type protein to KD value with respect to KRAS): SPR KD ratio HRAS/KRAS, class symbols
[4] = SPR Single Cycle Kinetics, 1:1 binding model

Chain of GDP-bound KRAS wild-type protein (P01116 whole entry): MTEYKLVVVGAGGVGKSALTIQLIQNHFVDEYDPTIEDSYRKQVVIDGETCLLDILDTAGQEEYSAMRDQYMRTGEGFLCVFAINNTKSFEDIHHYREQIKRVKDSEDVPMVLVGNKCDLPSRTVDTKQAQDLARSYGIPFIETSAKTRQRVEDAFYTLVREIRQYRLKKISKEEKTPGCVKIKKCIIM
Chain of GDP-bound NRAS wild-type protein (P01111 whole entry): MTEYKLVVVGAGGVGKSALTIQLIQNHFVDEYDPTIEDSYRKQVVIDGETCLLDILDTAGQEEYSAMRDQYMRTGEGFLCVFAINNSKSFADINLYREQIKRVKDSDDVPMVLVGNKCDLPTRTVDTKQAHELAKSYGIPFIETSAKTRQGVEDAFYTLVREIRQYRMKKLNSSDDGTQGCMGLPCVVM
Chain of GDP-bound HRAS wild-type protein (P01112 whole entry): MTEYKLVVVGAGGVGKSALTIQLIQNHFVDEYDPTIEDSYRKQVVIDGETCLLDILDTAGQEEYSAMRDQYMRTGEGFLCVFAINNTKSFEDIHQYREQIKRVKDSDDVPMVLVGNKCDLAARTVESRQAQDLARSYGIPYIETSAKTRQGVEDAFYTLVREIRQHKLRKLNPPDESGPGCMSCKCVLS

Kd [1, 4] [nM] | Kd ([1]; SPR, Single Cycle Kinetics) [nM] | SMILES | NRAS/KRAS (ratio of KD value for NRAS to KD value for KRAS) [2] | HRAS/KRAS (ratio of KD value for HRAS to KD value for KRAS) [3] | further results
0.35 | – | CCCN1C(=O)CN(C)C(=O)CNC(=O)[C@H]([C@@H](C)CC)NC(=O)[C@H](CC(C)C)N(C)C(=O)C[C@@H](C(=O)N2CCOCC2)N(C)C(=O)[C@H](C2CCCC2)N(C)C(=O)C2(CCCC2)NC(=O)[C@@H]2C[C@H](C)CN2C(=O)[C@H](CCc2ccc(C(F)(F)F)c(Cl)c2)NC(=O)CN(C)C(=O)[C@@H]1Cc1ccc(C(F)(F)F)cc1 [PP0449] ([NMeL]IG[Sar][NPrPhe(4-CF3)][Sar][hPhe(3-Cl-4-CF3)][Pro(4S-Me)][Ac5c][NMeGly(cPent)][NMeD]-Morpholide; lactam N-11) | – | – | NRAS/KRAS (ratio of KD value with respect to NRAS to KD value with respect to KRAS) [2]: C (A compound having a KD ratio of 0.1 or more and less than 3 is denoted as C); HRAS/KRAS (ratio of KD value with respect to HRAS to KD value with respect to KRAS) [3]: C (A compound having a KD ratio of 0.1 or more and less than 3 is denoted as C)
0.18 | – | CC[C@H](C)[C@@H]1NC(=O)[C@H](CC(C)C)N(C)C(=O)C[C@@H](C(=O)N2CCOCC2)N(C)C(=O)[C@H](C2CCCC2)N(C)C(=O)C2(CCCC2)NC(=O)[C@@H]2CCCN2C(=O)[C@H](CCc2ccc(C(F)(F)F)c(Cl)c2)NC(=O)CN(C)C(=O)[C@H](Cc2ccc(C)cc2)N(CC)C(=O)CN(C)C(=O)CN(C)C1=O [PP0022] ([NMeL]I[Sar][Sar][NEtPhe(4-Me)][Sar][hPhe(3-Cl-4-CF3)]P[Ac5c][NMeGly(cPent)][NMeD]-Morpholide; lactam N-11) | B (a compound having 3 or more and less than 10 is denoted as B) | C (A compound having a KD ratio of 0.1 or more and less than 3 is denoted as C) | –
1.7 | – | CCCN1C(=O)CN(C)C(=O)CN(CC)C(=O)[C@H]([C@@H](C)CC)NC(=O)[C@H](CC(C)C)N(C)C(=O)C[C@@H](C(=O)N(C)C)NC(=O)[C@H](C2CCCC2)N(C)C(=O)C2(CCC2)NC(=O)[C@@H]2CCCN2C(=O)[C@H](CCc2ccc(C(F)(F)F)c(Cl)c2)NC(=O)CN(C)C(=O)[C@@H]1Cc1ccc(C(F)(F)F)cc1 [PP0368] ([NMeL]I[NEtG][Sar][NPrPhe(4-CF3)][Sar][hPhe(3-Cl-4-CF3)]P[Ac4c][NMeGly(cPent)]D-NMe2; lactam N-11) | B (a compound having 3 or more and less than 10 is denoted as B) | B (a compound having 3 or more and less than 10 is denoted as B) | –
0.31 | – | CCC[C@H]1C(=O)N[C@@H]([C@@H](C)CC)C(=O)N(C)CC(=O)N(C)[C@H]2C/C=C\CCN(C2=O)[C@@H](Cc2ccc(C)cc2)C(=O)N(C)CC(=O)N[C@@H](CCc2ccc3sc(F)c(C)c3c2)C(=O)N2C[C@H](OCC)C[C@H]2C(=O)NC2(CC(C)(C)C2)C(=O)N(C)[C@@H](C(CC)CC)C(=O)N(C)[C@H](C(=O)N(C)C)CC(=O)N1C [PP2894] | – | – | NRAS/KRAS (ratio of KD value with respect to GDP-bound NRAS wild-type protein to KD value with respect to KRAS) [2]: AA (a compound having 20 or more is denoted as AA); HRAS/KRAS (ratio of KD value with respect to GDP-bound HRAS wild-type protein to KD value with respect to KRAS) [3]: A (a compound having 10 or more and less than 20 is denoted as A)
– | 1.9 | CCO[C@@H]1C[C@H]2C(=O)NC3(CCC3)C(=O)N(C)[C@@H](C3CCCC3)C(=O)N(C)[C@H](C(=O)N3CCOCC3)CC(=O)N(C)[C@@H](Cc3ccccc3C)C(=O)N[C@@H]([C@@H](C)CC)C(=O)N(C)CC(=O)N(C)[C@H]3CCCCCN(C3=O)[C@@H](Cc3ccc(C(F)(F)F)cc3)C(=O)N(C)CC(=O)N[C@@H](CCc3cc(F)c(C(F)(F)F)c(F)c3)C(=O)N2C1 [PP0931] | A (a compound having 10 or more and less than 20 is denoted as A) | B (a compound having 3 or more and less than 10 is denoted as B) | –
6.2 | – | CC[C@H](C)[C@@H]1NC(=O)[C@H](CC(C)C)N(CC)C(=O)C[C@@H](C(=O)N2CCOCC2)N(C)C(=O)[C@H](C2CCCC2)N(C)C(=O)C2(CCCC2)NC(=O)[C@@H]2CCCN2C(=O)[C@H](CCc2cc(F)c(C(F)(F)F)c(F)c2)NC(=O)CN(C)C(=O)[C@H](Cc2ccc(C(F)(F)F)cc2)N2CCCCC[C@@H](C2=O)N(C)C(=O)CN(C)C1=O [PP0513] | – | – | NRAS/KRAS (ratio of KD value with respect to NRAS to KD value with respect to KRAS) [2]: B (a compound having 3 or more and less than 10 is denoted as B); HRAS/KRAS (ratio of KD value with respect to HRAS to KD value with respect to KRAS) [3]: B (a compound having 3 or more and less than 10 is denoted as B)
2.4 | – | CCCN1C(=O)CN(C)C(=O)CN(CC)C(=O)[C@H]([C@@H](C)CC)NC(=O)[C@H](CC(C)C)N(C)C(=O)C[C@@H](C(=O)N2CCOCC2)NC(=O)[C@H](C2CCCC2)N(C)C(=O)C2(CCCC2)NC(=O)[C@@H]2CC(F)(F)CN2C(=O)[C@H](CCc2ccc(C(F)(F)F)c(Cl)c2)NC(=O)CN(C)C(=O)[C@@H]1Cc1ccc(C(F)(F)F)cc1 [PP0333] ([NMeL]I[NEtG][Sar][NPrPhe(4-CF3)][Sar][hPhe(3-Cl-4-CF3)][Pro(4,4-F2)][Ac5c][NMeGly(cPent)]D-Morpholide; lactam N-11) | B (a compound having 3 or more and less than 10 is denoted as B) | C (A compound having a KD ratio of 0.1 or more and less than 3 is denoted as C) | –
– | 5 | CC[C@H](C)[C@@H]1NC(=O)[C@H](COC)N(C)C(=O)C[C@@H](C(=O)N2CCOCC2)N(C)C(=O)[C@H](C2CCCC2)N(C)C(=O)C2(CCC2)NC(=O)[C@@H]2CCN2C(=O)[C@H](CCc2cc(F)c(C(F)(F)F)c(F)c2)NC(=O)CN(C)C(=O)[C@H](Cc2ccc(C(F)(F)F)cc2)N2CCCCC[C@@H](C2=O)N(C)C(=O)CN(C)C1=O [PP0840] | B (a compound having 3 or more and less than 10 is denoted as B) | B (a compound having 3 or more and less than 10 is denoted as B) | –
– | 0.11 | CC[C@H](C)[C@@H]1NC(=O)[C@H](COC)N(C)C(=O)C[C@@H](C(=O)N(C)C)N(C)C(=O)[C@H](C2CCCC2)N(C)C(=O)C2(CC(C)(C)C2)NC(=O)[C@@H]2C[C@@H](C)CN2C(=O)[C@H](CCc2ccc(C(F)(F)F)c(OC)c2)NC(=O)CN(C)C(=O)[C@H](Cc2ccc(C)cc2)N2CC/C=C\C[C@@H](C2=O)N(C)C(=O)CN(C)C1=O [PP2387] | A (a compound having 10 or more and less than 20 is denoted as A) | A (a compound having 10 or more and less than 20 is denoted as A) | –
1.2 | – | CCCN(C)C(=O)[C@@H]1CC(=O)N(C)[C@@H](CC)C(=O)N[C@@H]([C@@H](C)CC)C(=O)N(C)CC(=O)N(C)[C@H]2C/C=C\CCN(C2=O)[C@@H](Cc2ccc(C(F)(F)F)cc2)C(=O)N(C)CC(=O)N[C@@H](CCc2cc(F)c(C(F)(F)F)c(F)c2)C(=O)N2CC[C@H]2C(=O)NC2(CCC2)C(=O)N(C)[C@@H](C2CCCC2)C(=O)N1C [PP2915] | – | – | NRAS/KRAS (ratio of KD value with respect to GDP-bound NRAS wild-type protein to KD value with respect to KRAS) [2]: A (a compound having 10 or more and less than 20 is denoted as A); HRAS/KRAS (ratio of KD value with respect to GDP-bound HRAS wild-type protein to KD value with respect to KRAS) [3]: A (a compound having 10 or more and less than 20 is denoted as A)
– | 0.12 | C#CC[C@H]1C(=O)N[C@@H]([C@@H](C)CC)C(=O)N(C)CC(=O)N(C)[C@H]2C/C=C\CCN(C2=O)[C@@H](Cc2ccc(C(F)(F)F)cc2)C(=O)N(C)CC(=O)N[C@@H](CCc2ccc(C(F)(F)F)c(OC)c2)C(=O)N2C[C@H](OCC)C[C@H]2C(=O)NC2(CC(C)(C)C2)C(=O)N(C)[C@@H](C2CCCC2)C(=O)N(C)[C@H](C(=O)N(C)CC)CC(=O)N1C [PP2051] | A (a compound having 10 or more and less than 20 is denoted as A) | A (a compound having 10 or more and less than 20 is denoted as A) | –
– | 0.075 | C#CC[C@H]1C(=O)N[C@@H]([C@@H](C)CC)C(=O)N(C)CC(=O)N(C)[C@H]2C/C=C\CCN(C2=O)[C@@H](Cc2ccc(C(F)(F)F)cc2)C(=O)N(C)CC(=O)N[C@@H](CCc2ccc(C(F)(F)F)c(OC)c2)C(=O)N2C[C@@H](C)C[C@H]2C(=O)NC2(CCC2)C(=O)N(C)[C@@H](C2CCCC2)C(=O)N(C)[C@H](C(=O)N(C)CC)CC(=O)N1C [PP2061] | AA (a compound having 20 or more is denoted as AA) | A (a compound having 10 or more and less than 20 is denoted as A) | –
– | – | CC[C@H](C)[C@@H]1NC(=O)[C@H](CC2CC2)N(C)C(=O)C[C@@H](C(=O)N2CCCC2)N(C)C(=O)[C@H](C2CCCC2)N(C)C(=O)C2(CCC2)NC(=O)[C@@H]2C[C@H](C)CN2C(=O)[C@H](CCc2cc(F)c(C(F)(F)F)c(F)c2)NC(=O)CN(C)C(=O)[C@H](Cc2ccc(C(F)(F)F)cc2)N2CC/C=C\C[C@@H](C2=O)N(C)C(=O)CN(C)C1=O [PP1510, (2S,8S,12S,14S,20S,23S,27S,30S,36S,38Z)-20-cyclopentyl-27-(cyclopropylmethyl)-8-[2-[3,5-difluoro-4-(trifluoromethyl)phenyl]ethyl]-4,12,19,22,26,32,35-heptamethyl-30-[(1S)-1-methylpropyl]-23-(pyrrolidine-1-carbonyl)-2-[[4-(trifluoromethyl)phenyl]methyl]spiro[1,4,7,10,16,19,22,26,29,32,35-undecazatricyclo[34.5.1.0^10,14]dotetracont-38-ene-17,1′-cyclobutane]-3,6,9,15,18,21,25,28,31,34,42-undecone] | – | – | Kd ([1]; SPR, Single Cycle Kinetics, 1:1 binding model): 0.11 nM; NRAS/KRAS (ratio of KD value for NRAS to KD value for KRAS) ([2]; KD ratio class): AA (a compound having 20 or more is denoted as AA); HRAS/KRAS (ratio of KD value for HRAS to KD value for KRAS) ([3]; KD ratio class): A (a compound having 10 or more and less than 20 is denoted as A)
